One may read the MIC as the lowest concentration found to suppress growth.

SMILES strings stand for the structures. ≈ marks a conversion by molar mass, not a printed value. Bounds are passed on as bounds.

In ChEMBL document CHEMBL5137124, “Mutasynthesis Generates Antibacterial Benzothiophenic-Containing Nosiheptide Analogues” (2022) one finds MIC data, which are given here for six molecules.

Common to all, as to type: functional
The subject of assay [1] is Staphylococcus aureus. Briefly: Antibacterial activity against gram positive methicillin-resistant Staphylococcus aureus ATCC 43300 assessed as inhibition of bacterial growth incubated for 20 hrs by microtiter plate method.
Assay [2] deals with Staphylococcus aureus. Briefly: Antibacterial activity against gram positive methicillin-resistant Staphylococcus aureus HCCB 20251 assessed as inhibition of bacterial growth incubated for 20 hrs by microtiter plate method.
Assay [3] has as its system Enterococcus faecium. Briefly: Antibacterial activity against gram positive vancomycin-resistant Enterococcus faecium ATCC 51559 assessed as inhibition of bacterial growth incubated for 20 hrs by microtiter plate method.
Assay [4] relates to Enterococcus faecium. Briefly: Antibacterial activity against gram positive vancomycin-sensitive Enterococcus faecium CICC 20419 assessed as inhibition of bacterial growth incubated for 20 hrs by microtiter plate method.
Assay [5] relates to Enterococcus faecium. Briefly: Antibacterial activity against gram positive vancomycin-sensitive Enterococcus faecium CICC 6049 assessed as inhibition of bacterial growth incubated for 20 hrs by microtiter plate method.
Assay [6] relates to Staphylococcus aureus. Briefly: Antibacterial activity against gram positive methicillin-resistant Staphylococcus aureus HCCB 20252 assessed as inhibition of bacterial growth incubated for 20 hrs by microtiter plate method.
The subject of assay [7] is Staphylococcus aureus. Briefly: Antibacterial activity against gram positive methicillin-sensitive Staphylococcus aureus ATCC 25923 assessed as inhibition of bacterial growth incubated for 20 hrs by microtiter plate method.
For assay [8], the system named is Staphylococcus aureus. Briefly: Antibacterial activity against gram positive methicillin-sensitive Staphylococcus aureus ATCC 6538 assessed as inhibition of bacterial growth incubated for 20 hrs by microtiter plate method.

Consider `C=C(NC(=O)c1csc(-c2nc3c(cc2O)-c2nc(cs2)C(=O)N[C@@H]([C@@H](C)O)C(=O)N/C(=C\C)c2nc(cs2)C(=O)N[C@H]2C[C@H](O)C(=O)OCc4cccc5[nH]c(c(C)c45)C(=O)SC[C@H](NC(=O)c4csc2n4)c2nc-3cs2)n1)C(N)=O`, for which the MIC in the assay with Staphylococcus aureus [1] is 0.008 µg/mL (≈ 0.00654 µM); with Staphylococcus aureus [2], 0.008 µg/mL (≈ 0.00654 µM); in the assay on Enterococcus faecium [3], no more than 0.008 µg/mL; in the assay with Enterococcus faecium [4], 0.032 µg/mL (≈ 0.0262 µM); with Enterococcus faecium [5], 0.016 µg/mL (≈ 0.0131 µM); in the assay on Staphylococcus aureus [6] it was 0.008 µg/mL (≈ 0.00654 µM). Moreover, the MIC in the assay with Staphylococcus aureus [7] was determined as 0.008 µg/mL (≈ 0.00654 µM); with Staphylococcus aureus [8], 0.002 µg/mL (≈ 0.00164 µM).

Turning to `C=C(NC(=O)C(=C)NC(=O)c1csc(-c2ccc3c(n2)-c2csc(n2)[C@@H]2CSC(=O)c4sc5cccc(c5c4C)COC(=O)CC[C@H](NC(=O)c4csc(n4)/C(=C/C)NC(=O)[C@H]([C@@H](C)O)NC(=O)c4csc-3n4)c3nc(cs3)C(=O)N2)n1)C(=O)O`, the MIC in the assay on Staphylococcus aureus [1] amounted to 0.032 µg/mL (≈ 0.025 µM); in the assay on Staphylococcus aureus [2], 0.064 µg/mL (≈ 0.0501 µM); in the assay with Enterococcus faecium [3], 0.512 µg/mL (≈ 0.401 µM); in the assay on Enterococcus faecium [4], 1.02 µg/mL (≈ 0.802 µM); in the assay on Enterococcus faecium [5], 1.02 µg/mL (≈ 0.802 µM); in the assay on Staphylococcus aureus [6], 0.032 µg/mL (≈ 0.025 µM). In addition, the MIC in the assay on Staphylococcus aureus [7] amounted to 0.032 µg/mL (≈ 0.025 µM); in the assay with Staphylococcus aureus [8], 0.016 µg/mL (≈ 0.0125 µM).

For `C=C(NC(=O)c1csc(-c2nc3c(cc2O)-c2nc(cs2)C(=O)N[C@@H]([C@@H](C)O)C(=O)N/C(=C\C)c2nc(cs2)C(=O)N[C@H]2CCC(=O)OCc4cccc5sc(c(C)c45)C(=O)SC[C@H](NC(=O)c4csc2n4)c2nc-3cs2)n1)C(N)=O`, the MIC in the assay on Staphylococcus aureus [1] was found to be 0.008 µg/mL (≈ 0.00654 µM); in the assay with Staphylococcus aureus [2], 0.016 µg/mL (≈ 0.0131 µM); in the assay with Enterococcus faecium [3] it was 0.032 µg/mL (≈ 0.0262 µM); in the assay with Enterococcus faecium [4], 0.064 µg/mL (≈ 0.0523 µM); in the assay on Enterococcus faecium [5] it was 0.064 µg/mL (≈ 0.0523 µM); in the assay with Staphylococcus aureus [6], 0.008 µg/mL (≈ 0.00654 µM). In addition, the MIC in the assay with Staphylococcus aureus [7] came to 0.032 µg/mL (≈ 0.0262 µM); in the assay on Staphylococcus aureus [8], 0.004 µg/mL (≈ 0.00327 µM).

Consider `C=C(NC(=O)C(=C)NC(=O)c1csc(-c2ccc3c(n2)-c2csc(n2)[C@@H]2CSC(=O)c4[nH]c5cccc(c5c4C)COC(=O)CC[C@H](NC(=O)c4csc(n4)/C(=C/C)NC(=O)[C@H]([C@@H](C)O)NC(=O)c4csc-3n4)c3nc(cs3)C(=O)N2)n1)C(=O)O`, for which the MIC in the assay on Staphylococcus aureus [1] was 0.032 µg/mL (≈ 0.0254 µM); with Staphylococcus aureus [2], 0.064 µg/mL (≈ 0.0508 µM); with Enterococcus faecium [3], 0.512 µg/mL (≈ 0.406 µM); in the assay with Enterococcus faecium [4] it was 1.02 µg/mL (≈ 0.812 µM); in the assay on Enterococcus faecium [5], greater than 1.02 µg/mL; in the assay on Staphylococcus aureus [6], 0.064 µg/mL (≈ 0.0508 µM). Moreover, the MIC in the assay with Staphylococcus aureus [7] and with Staphylococcus aureus [8] was 0.016 µg/mL (≈ 0.0127 µM) in each case.

Turning to `C=C(NC(=O)c1csc(-c2nc3c(cc2O)-c2nc(cs2)C(=O)N[C@@H]([C@@H](C)O)C(=O)N/C(=C\C)c2nc(cs2)C(=O)N[C@H]2C[C@H](O)C(=O)OCc4cccc5sc(c(C)c45)C(=O)SC[C@H](NC(=O)c4csc2n4)c2nc-3cs2)n1)C(N)=O`, the MIC stood at 0.008 µg/mL (≈ 0.00645 µM) in the assay on Staphylococcus aureus [1]; 0.016 µg/mL (≈ 0.0129 µM) with Staphylococcus aureus [2]; 0.016 µg/mL (≈ 0.0129 µM) with Enterococcus faecium [3]; 0.064 µg/mL (≈ 0.0516 µM) in the assay with Enterococcus faecium [4]; 0.064 µg/mL (≈ 0.0516 µM) in the assay with Enterococcus faecium [5]; 0.008 µg/mL (≈ 0.00645 µM) in the assay with Staphylococcus aureus [6]. The MIC in the assay with Staphylococcus aureus [7] was found to be 0.008 µg/mL (≈ 0.00645 µM); with Staphylococcus aureus [8], 0.004 µg/mL (≈ 0.00323 µM).

Regarding `CN[C@H](CC(C)C)C(=O)N[C@H]1C(=O)N[C@@H](CC(N)=O)C(=O)N[C@H]2C(=O)N[C@H]3C(=O)N[C@H](C(=O)N[C@H](C(=O)O)c4cc(O)cc(O)c4-c4cc3ccc4O)[C@H](O)c3ccc(c(Cl)c3)Oc3cc2cc(c3O[C@@H]2O[C@H](CO)[C@@H](O)[C@H](O)[C@H]2O[C@H]2C[C@](C)(N)[C@H](O)[C@H](C)O2)Oc2ccc(cc2Cl)[C@H]1O` [VANCOMYCIN], in the assay with Enterococcus faecium [3], the MIC was greater than 128 µg/mL.
